How the values were obtained:
Experiment in all cases: Test C preemergence
Assay type in all cases: in vivo
[1] = tested on: yellow nutsedge (Cyperus esculentus); conditions: Cyperus, pre-emergence, 336 h, scale 0 to 100, read-out: Plant response rating, Nutsedge, Yellow
How it was run: (§1)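 Seeds sown in a loam soil and sand blend were treated preemergence; plants in peat-moss/vermiculite medium were sprayed at the 1- to 4-leaf stage (2-18 cm). Chemicals were in a non-phytotoxic surfactant-containing solvent. After 13 to 15 days in a greenhouse, injury was visually rated against controls on a 0-100 scale.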

[2] = tested on: winter wheat (Triticum aestivum); conditions: Triticum aestivum, pre-emergence, 336 h, scale 0 to 100, read-out: Plant response rating, Wheat
How it was run: as §1

[3] = tested on: pigweed (Amaranthus retroflexus); conditions: Amaranthus retroflexus, pre-emergence, 336 h, scale 0 to 100, read-out: Plant response rating, Pigweed
How it was run: as §1

[4] = tested on: oilseed rape (Brassica napus); conditions: Brassica napus, pre-emergence, scale 0 to 100, read-out: Plant response rating, Oilseed Rape
How it was run: as §1

[5] = tested on: ragweed (common ragweed, Ambrosia elatior); conditions: Ambrosia artemisiifolia, pre-emergence, 336 h, scale 0 to 100, read-out: Plant response rating, Ragweed
How it was run: as §1

[6] = tested on: corn (Zea mays); conditions: Zea mays, pre-emergence, 336 h, scale 0 to 100
How it was run: as §1

[7] = tested on: lambsquarters (Chenopodium album); conditions: Chenopodium album, pre-emergence, 336 h, scale 0 to 100, read-out: Plant response rating, Lambsquarters
How it was run: as §1

[8] = tested on: morningglory (Ipomoea coccinea); conditions: Ipomoea, pre-emergence, 336 h, scale 0 to 100, read-out: Plant response rating, Morningglory
How it was run: as §1

[9] = tested on: velvetleaf (Abutilon theophrasti); conditions: Abutilon theophrasti, pre-emergence, scale 0 to 100, read-out: Plant response rating, Velvetleaf
How it was run: as §1

[10] = tested on: waterhemp (common waterhemp, Amaranthus rudis); conditions: Amaranthus tuberculatus, pre-emergence, scale 0 to 100, read-out: Plant response rating, Waterhemp
How it was run: as §1

[11] = tested on: blackgrass (Alopecurus myosuroides); conditions: Alopecurus myosuroides, pre-emergence, 336 h, scale 0 to 100, read-out: Plant response rating, Blackgrass
How it was run: as §1

[12] = tested on: Italian ryegrass (Lolium multiflorum); conditions: Lolium multiflorum, pre-emergence, 336 h, scale 0 to 100, read-out: Plant response rating, Ryegrass, Italian
How it was run: as §1

[13] = tested on: large (Lg) crabgrass (Digitaria sanguinalis); conditions: Digitaria sanguinalis, pre-emergence, 336 h, scale 0 to 100, read-out: Plant response rating, Crabgrass, Large
How it was run: as §1

[14] = tested on: giant foxtail (Setaria faberii); conditions: Setaria faberi, pre-emergence, 336 h, scale 0 to 100, read-out: Plant response rating, Foxtail, Giant
How it was run: as §1

[15] = tested on: soybean (Glycine max); conditions: Glycine max, pre-emergence, scale 0 to 100, read-out: Plant response rating, Soybean
How it was run: as §1

Fc1cnc(Oc2c(F)ccc(F)c2Oc2ncc(F)cn2)nc1 [Compound 29, 2,2′-[(3,6-difluoro-1,2-phenylene)bis(oxy)]bis[5-fluoropyrimidine]]
pest or weed control at 31 g/ha ([1]; 31 g ai/ha, preemergence): 0%
pest or weed control at 62 g/ha ([1]; 62 g ai/ha, preemergence): 0%
pest or weed control at 125 g/ha ([1]; 125 g ai/ha, preemergence): 40%
pest or weed control at 16 g/ha ([1]; Preemergence, 16 g ai/ha): 0%
plant injury at 31 g/ha ([2]; 31 g ai/ha, preemergence): 5%
plant injury at 62 g/ha ([2]; 62 g ai/ha, preemergence): 35%
plant injury at 125 g/ha ([2]; 125 g ai/ha, preemergence): 60%
plant injury at 16 g/ha ([2]; Preemergence, 16 g ai/ha): 0%
pest or weed control at 31 g/ha ([3]; 31 g ai/ha, preemergence): 100%
pest or weed control at 62 g/ha ([3]; 62 g ai/ha, preemergence): 100%
pest or weed control at 125 g/ha ([3]; 125 g ai/ha, preemergence): 100%
pest or weed control at 16 g/ha ([3]; Preemergence, 16 g ai/ha): 98%
plant injury at 31 g/ha ([4]; 31 g ai/ha, preemergence): 98%
plant injury at 62 g/ha ([4]; 62 g ai/ha, preemergence): 95%
plant injury at 125 g/ha ([4]; 125 g ai/ha, preemergence): 95%
plant injury at 16 g/ha ([4]; Preemergence, 16 g ai/ha): 95%
pest or weed control at 31 g/ha ([5]; 31 g ai/ha, preemergence): 85%
pest or weed control at 62 g/ha ([5]; 62 g ai/ha, preemergence): 85%
pest or weed control at 125 g/ha ([5]; 125 g ai/ha, preemergence): 95%
pest or weed control at 16 g/ha ([5]; Preemergence, 16 g ai/ha): 90%
Corn plant response rating (crop injury, 0 = no effect, 100 = complete kill) at 31 g/ha ([6]; 31 g ai/ha, preemergence): 15%
Corn plant response rating (crop injury, 0 = no effect, 100 = complete kill) at 62 g/ha ([6]; 62 g ai/ha, preemergence): 25%
Corn plant response rating (crop injury, 0 = no effect, 100 = complete kill) at 125 g/ha ([6]; 125 g ai/ha, preemergence): 65%
Corn plant response rating (crop injury, 0 = no effect, 100 = complete kill) at 16 g/ha ([6]; Preemergence, 16 g ai/ha): 0%
pest or weed control at 31 g/ha ([7]; 31 g ai/ha, preemergence): 85%
pest or weed control at 62 g/ha ([7]; 62 g ai/ha, preemergence): 85%
pest or weed control at 125 g/ha ([7]; 125 g ai/ha, preemergence): 90%
pest or weed control at 16 g/ha ([7]; Preemergence, 16 g ai/ha): 80%
pest or weed control at 31 g/ha ([8]; 31 g ai/ha, preemergence): 75%
pest or weed control at 62 g/ha ([8]; 62 g ai/ha, preemergence): 80%
pest or weed control at 125 g/ha ([8]; 125 g ai/ha, preemergence): 85%
pest or weed control at 16 g/ha ([8]; Preemergence, 16 g ai/ha): 55%
pest or weed control at 31 g/ha ([9]; 31 g ai/ha, preemergence): 98%
pest or weed control at 62 g/ha ([9]; 62 g ai/ha, preemergence): 90%
pest or weed control at 125 g/ha ([9]; 125 g ai/ha, preemergence): 98%
pest or weed control at 16 g/ha ([9]; Preemergence, 16 g ai/ha): 75%
pest or weed control at 31 g/ha ([10]; 31 g ai/ha, preemergence): 100%
pest or weed control at 62 g/ha ([10]; 62 g ai/ha, preemergence): 100%
pest or weed control at 125 g/ha ([10]; 125 g ai/ha, preemergence): 100%
pest or weed control at 16 g/ha ([10]; Preemergence, 16 g ai/ha): 100%
pest or weed control at 31 g/ha ([11]; 31 g ai/ha, preemergence): 90%
pest or weed control at 62 g/ha ([11]; 62 g ai/ha, preemergence): 90%
pest or weed control at 125 g/ha ([11]; 125 g ai/ha, preemergence): 90%
pest or weed control at 16 g/ha ([11]; Preemergence, 16 g ai/ha): 60%
pest or weed control at 31 g/ha ([12]; 31 g ai/ha, preemergence): 15%
pest or weed control at 62 g/ha ([12]; 62 g ai/ha, preemergence): 50%
pest or weed control at 125 g/ha ([12]; 125 g ai/ha, preemergence): 60%
pest or weed control at 16 g/ha ([12]; Preemergence, 16 g ai/ha): 30%
pest or weed control at 31 g/ha ([13]; 31 g ai/ha, preemergence): 95%
pest or weed control at 62 g/ha ([13]; 62 g ai/ha, preemergence): 95%
pest or weed control at 125 g/ha ([13]; 125 g ai/ha, preemergence): 98%
pest or weed control at 16 g/ha ([13]; Preemergence, 16 g ai/ha): 95%
pest or weed control at 31 g/ha ([14]; 31 g ai/ha, preemergence): 80%
pest or weed control at 62 g/ha ([14]; 62 g ai/ha, preemergence): 85%
pest or weed control at 125 g/ha ([14]; 125 g ai/ha, preemergence): 98%
pest or weed control at 16 g/ha ([14]; Preemergence, 16 g ai/ha): 75%
plant injury at 31 g/ha ([15]; 31 g ai/ha, preemergence): 85%
plant injury at 62 g/ha ([15]; 62 g ai/ha, preemergence): 90%
plant injury at 125 g/ha ([15]; 125 g ai/ha, preemergence): 90%
plant injury at 16 g/ha ([15]; Preemergence, 16 g ai/ha): 70%

Source: US20170190671A1, “BIS(ARYL)CATECHOL DERIVATIVES AS HERBICIDES” (E I DU PONT DE NEMOURS AND COMPANY, priority 2014, published 2017)
